# Measured values from patent US20180296630A1, “METHODS AND COMPOSITIONS FOR PREVENTING OR TREATING OPHTHALMIC CONDITIONS” (Stealth BioTherapeutics Corp, priority 2012, published 2018).
# Key:
# [1] = tested on: human retinal epithelial cells (HREC); experiment: Intracellular ROS in HRECs exposed to 30 mM glucose (dihydroethidium); type: cell-based; settings: 100 nM, 24 h and 48 h
# Procedure: FIGS. 2A-2F is a series of micrographs showing co-treatment with D-Arg-2′,6′-Dmt-Lys-Phe-NH2 (SS-31) reduced intracellular reactive oxygen species (ROS) in HRECs exposed to 30 mM glucose for 24 h and 48 h. Intracellular ROS was measured using dihydroethidium. 2A, 2D normal culture media; 2B, 2E 30 mM glucose; and 2C, 2F 30 mM glucose+D-Arg-2′,6′-Dmt-Lys-Phe-NH2 (SS-31) (100 nM) at 24 and 48 h, respectively.
# The survival of HRECs in high glucose co-treated with D-Arg-2′,6′-Dmt-Lys-Phe-NH2 was tested at 24 h and 48 h.
# CNV mouse model = experiment: Laser-induced choroidal neovascularization (CNV) mouse model; type: in vivo, C57BL/6 male mice; settings: one week after laser
# Text: CNV were induced in the eye with laser burns. Methods useful in the present studies have been described by Reich, Mol Vis 2003; 9:210-216.
# Briefly, five to six-week-old C57BL/6 male mice were anesthetized with chloral hydrate and the pupils were dilated with tropicamide. With a coverslip used as a contact lens, four laser spots (532 nm, 260 mw, 0.01 s, 50 μm; Novus Spectra, Lumenis, USA) were applied to the fundus in a circle around the optic disc in the right eye. Daily intraperitoneal injections of 1 mg/kg, 9 mg/kg D-Arg-2′,6′-Dmt-Lys-Phe-NH2 (D-Arg-2′,6′-Dmt-Lys-Phe-NH2) or vehicle were started the day prior to laser photocoagulation.
# After one week, mice were deeply anaesthetized and perfused through the left ventricle with 1 ml (50 mg/ml) of PB S-buffered fluorescein-dextran. Eyes were enucleated and fixed in 4% paraformaldehyde for 2 h. The eyes were sectioned at the equator, and the anterior half and retina were removed. The posterior eye segment containing the sclera and choroid was dissected into quarters by four to five radial cuts and mounted on a slide. All flatmounts were examined by a fluorescence microscope (AxioCam MRC; Carl Zeiss). […]
# There were 48 locations of neovascularization in each group. The area of neovascularization was calculated using IMAGE-PROPLUS6.0 software. […]
# GTM3 cells = experiment: ROS production, sustained oxidative injury by H2O2, GTM3 cells; type: cell-based, human; settings: then 200 μM H2O2 24 h
# Procedure: The effects of D-Arg-2′,6′-Dmt-Lys-Phe-NH2 on sustained oxidative injury of GTM and HTM cells was examined. Cells were pre-treated with 10^−6, 10^−7, 10^−8M of D-Arg-2′,6′-Dmt-Lys-Phe-NH2 for 1 h, and then incubated with 200 μM H2O2 for 24 h to investigate the protective effect of D-Arg-2′,6′-Dmt-Lys-Phe-NH2 in sustained oxidative stress.
# Trx2 in HRECs = experiment: Trx2 expression in high glucose-treated HRECs (real-time PCR, Western blot); type: cell-based, human; settings: 30 mM glucose co-treatment; 24 h and 48 h
# Procedure: D-Arg-2′,6′-Dmt-Lys-Phe-NH2 increased the expression of Trx2 in the high glucose-treated HRECs. […] The mRNA expression level of Trx2 was measured by quantitative real-time PCR. Relative mRNA levels of Trx2 were normalized by 18S mRNA levels (* p<0.05 vs. the normal glucose medium group and the 30 mM high glucose treated group). Three independent samples were used for each time point.
# [2] = tested on: STZ and HFD/STZ diabetic rats; experiment: Retinal microvessel changes in diabetic SD rats; type: in vivo, Sprague-Dawley rat; settings: STZ or HFD/STZ rats
# Procedure: (§1) A rat model of diabetes was established by combination of 6-week HFD and low dose of STZ (30 mg/kg) injection or a single high dose of STZ (65 mg/kg) in SD rats. See generally, K. Srinivasan, B. Viswanad, Lydia Asrat, C. L. Kaul and P. Ramarao, Combination of high-fat diet-fed and low-dose streptozotocin-treated rat: A model for type 2 diabetes and pharmacological screening, Pharmacological Research, 52(4): 313-320, 2005. Rats of the same batch fed with normal chow (NRC) were used as a control.
# The effect of the aromatic-cationic peptides on retinal microvessels in the SD rat model was investigated (FIGS. 11-12). Administration of D-Arg-2′,6′-Dmt-Lys-Phe-NH2 reduced retinal microvasular changes observed in STZ or HFD/STZ rats.
# HFD/STZ diabetic rats = experiment: Lens opacity (cataract) in HFD/STZ rat model; type: in vivo, Sprague-Dawley rat; settings: for Percentage of opacity / Percentage of severe opacity / Turbidity degree + (mildly opaque), number in group / Turbidity degree ++ (opaque), number in group / Turbidity degree +++ (moderately opaque), number in group / Turbidity degree ++++ (severely opaque), number in group / Turbidity degree − (transparent), number in group: HFD/STZ rat model
# Procedure: as §1
substance,measurement,setting,value
"D-Arg-2′,6′-Dmt-Lys-Phe-NH2",production of ROS,[1],reduced
same,area of neovascularization,CNV mouse model; 1 mg/kg daily intraperitoneal,0.0068±0.0025
same,area of neovascularization,CNV mouse model; 9 mg/kg daily intraperitoneal,0.0067±0
same,ROS Production,GTM3 cells; 0.01 μM pre-treatment 1 h,133.70 ± 3.24 %
same,ROS Production,GTM3 cells; 0.1 μM pre-treatment 1 h,68.91 ± 8.62 %
same,ROS Production,GTM3 cells; 1 μM pre-treatment 1 h,47.40 ± 1.81 %
same,expression of Trx2,Trx2 in HRECs,increased
same,retinal microvascular changes,[2],reduced
same,cataract formation in the lenses of diabetic rats,"HFD/STZ diabetic rats; HFD/STZ and STZ models (FIGS. 6 and 7, Tables 13 and 14)",prevention or reversal of cataract formation
same,Percentage of opacity,HFD/STZ diabetic rats; 1 mg (Table 9: 1 mg/kg s.c.),67.7%
same,Percentage of severe opacity,HFD/STZ diabetic rats; 1 mg (Table 9: 1 mg/kg s.c.),0%
same,"Turbidity degree + (mildly opaque), number in group",HFD/STZ diabetic rats; 1 mg (Table 9: 1 mg/kg s.c.),1
same,"Turbidity degree ++ (opaque), number in group",HFD/STZ diabetic rats; 1 mg (Table 9: 1 mg/kg s.c.),1
same,"Turbidity degree +++ (moderately opaque), number in group",HFD/STZ diabetic rats; 1 mg (Table 9: 1 mg/kg s.c.),0
same,"Turbidity degree ++++ (severely opaque), number in group",HFD/STZ diabetic rats; 1 mg (Table 9: 1 mg/kg s.c.),0
same,"Turbidity degree − (transparent), number in group",HFD/STZ diabetic rats; 1 mg (Table 9: 1 mg/kg s.c.),1
same,Percentage of opacity,HFD/STZ diabetic rats; 3 mg (Table 9: 3 mg/kg s.c.),20.0%
same,Percentage of severe opacity,HFD/STZ diabetic rats; 3 mg (Table 9: 3 mg/kg s.c.),20.0%
same,"Turbidity degree + (mildly opaque), number in group",HFD/STZ diabetic rats; 3 mg (Table 9: 3 mg/kg s.c.),1
same,"Turbidity degree ++ (opaque), number in group",HFD/STZ diabetic rats; 3 mg (Table 9: 3 mg/kg s.c.),0
same,"Turbidity degree +++ (moderately opaque), number in group",HFD/STZ diabetic rats; 3 mg (Table 9: 3 mg/kg s.c.),0
same,"Turbidity degree ++++ (severely opaque), number in group",HFD/STZ diabetic rats; 3 mg (Table 9: 3 mg/kg s.c.),1
same,"Turbidity degree − (transparent), number in group",HFD/STZ diabetic rats; 3 mg (Table 9: 3 mg/kg s.c.),3
same,Percentage of opacity,HFD/STZ diabetic rats; 10 mg (Table 9: 10 mg/kg s.c.),14.3%
same,Percentage of severe opacity,HFD/STZ diabetic rats; 10 mg (Table 9: 10 mg/kg s.c.),0%
same,"Turbidity degree + (mildly opaque), number in group",HFD/STZ diabetic rats; 10 mg (Table 9: 10 mg/kg s.c.),1
same,"Turbidity degree ++ (opaque), number in group",HFD/STZ diabetic rats; 10 mg (Table 9: 10 mg/kg s.c.),0
same,"Turbidity degree +++ (moderately opaque), number in group",HFD/STZ diabetic rats; 10 mg (Table 9: 10 mg/kg s.c.),0
same,"Turbidity degree ++++ (severely opaque), number in group",HFD/STZ diabetic rats; 10 mg (Table 9: 10 mg/kg s.c.),0
same,"Turbidity degree − (transparent), number in group",HFD/STZ diabetic rats; 10 mg (Table 9: 10 mg/kg s.c.),6
